Measured values reported in US20240208961A1, “EIF4E INHIBITORS AND USES THEREOF” (PIC Therapeutics, Inc., priority 2022, published 2024).
Values joined by “and” are separate entries in the source; they are usually repeats but may differ in a detail not shown here. Equal entries are not always repeated. Where two headings read alike, the source gives them in different places.

Assays:
[1] = Pharmacokinetic studies of certain compounds in female Balb/c mice (Example 5); format: in vivo
Summary of the method: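 Female Balb/c mice (N=9) were fasted overnight and given compound PO as a suspension in 1% CMC/0.2% Tween 80 or IV in 5% DMSO/5% Solutol HS15/90% saline. Facial-vein plasma was taken from 0.083 to 24 h and assayed by LC-MS. Parameters are non-compartmental, and F was based on AUCINF or AUClast.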

Human eIF4E (aa 28-217) = target: T1, Human eIF4E (aa 28-217) (Homo sapiens, UniProt P06730); assay: 4G-eIF4E protein-based assay (TR-FRET, biotin labeled 4G2 peptide); format: binding
T1 construct: Human eIF4E (aa 28-217) with a C-terminal His-tag; made in house
T1 sequence (P06730 28-217): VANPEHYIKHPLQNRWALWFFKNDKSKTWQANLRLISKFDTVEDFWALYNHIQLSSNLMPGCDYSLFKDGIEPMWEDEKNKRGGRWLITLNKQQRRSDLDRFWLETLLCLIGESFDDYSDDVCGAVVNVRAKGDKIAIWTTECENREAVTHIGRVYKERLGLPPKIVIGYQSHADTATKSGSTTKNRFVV

[2] = I-8 IV 1 mg/kg, 8 hr, BQL = below quantifiable limit of 3.00 ng/mL
[3] = I-8 IV 1 mg/kg, 24 hr, BQL = below quantifiable limit of 3.00 ng/mL

Plasma concentration Individual ([1]; I-8 IV 1 mg/kg, 0.083 hr, 1 mg/kg): 2020 ng/mL and 1630 ng/mL
Plasma concentration Individual ([1]; I-8 IV 1 mg/kg, 0.25 hr, 1 mg/kg): 632 ng/mL and 700 ng/mL
Plasma concentration Individual ([1]; I-8 IV 1 mg/kg, 0.5 hr, 1 mg/kg): 309 ng/mL and 296 ng/mL
Plasma concentration Individual ([1]; I-8 IV 1 mg/kg, 1 hr, 1 mg/kg): 66.5 ng/mL and 97.1 ng/mL
Plasma concentration Individual ([1]; I-8 IV 1 mg/kg, 2 hr, 1 mg/kg): 25.8 ng/mL and 16.3 ng/mL
Plasma concentration Individual ([1]; I-8 IV 1 mg/kg, 4 hr, 1 mg/kg): 7.83 ng/mL and 8.03 ng/mL
Plasma concentration Individual [1, 2]: BQL
Plasma concentration Mean [1, 2]: BQL
Plasma concentration Individual [1, 3]: BQL
Plasma concentration Mean [1, 3]: BQL
F ([1]; I-8 PO 50 mg/kg vs IV 1 mg/kg): 27.8%
Plasma concentration Individual ([1]; I-8 PO 50 mg/kg, 0.083 hr, 50 mg/kg): 482 ng/mL and 270 ng/mL
Plasma concentration Individual ([1]; I-8 PO 50 mg/kg, 0.25 hr, 50 mg/kg): 1250 ng/mL and 2030 ng/mL
Plasma concentration Individual ([1]; I-8 PO 50 mg/kg, 0.5 hr, 50 mg/kg): 1900 ng/mL and 3970 ng/mL and 4110 ng/mL
Plasma concentration Individual ([1]; I-8 PO 50 mg/kg, 1 hr, 50 mg/kg): 3600 ng/mL and 2260 ng/mL
Plasma concentration Individual ([1]; I-8 PO 50 mg/kg, 2 hr, 50 mg/kg): 2510 ng/mL and 1700 ng/mL
Plasma concentration Individual ([1]; I-8 PO 50 mg/kg, 4 hr, 50 mg/kg): 536 ng/mL and 958 ng/mL
Plasma concentration Individual ([1]; I-8 PO 50 mg/kg, 8 hr, 50 mg/kg): 127 ng/mL and 134 ng/mL
Plasma concentration Individual ([1]; I-8 PO 50 mg/kg, 24 hr, 50 mg/kg): 5.77 ng/mL and 14.0 ng/mL and 3.49 ng/mL
concentration at 0.083 hr ([1]; female, Balb/c, mouse, plasma, iv, 1 mg/kg, I-8 IV 1 mg/kg, 0.083 hr, read-out: Plasma concentration Individual): 1780 ng/mL
concentration at 0.083 hr ([1]; female, Balb/c, mouse, plasma, iv, 1 mg/kg, I-8 IV 1 mg/kg, 0.083 hr, read-out: Plasma concentration Mean): 1810 ng/mL
concentration at 0.25 hr ([1]; female, Balb/c, mouse, plasma, iv, 1 mg/kg, I-8 IV 1 mg/kg, 0.25 hr, read-out: Plasma concentration Individual): 847 ng/mL
concentration at 0.25 hr ([1]; female, Balb/c, mouse, plasma, iv, 1 mg/kg, I-8 IV 1 mg/kg, 0.25 hr, read-out: Plasma concentration Mean): 726 ng/mL
concentration at 0.5 hr ([1]; female, Balb/c, mouse, plasma, iv, 1 mg/kg, I-8 IV 1 mg/kg, 0.5 hr, read-out: Plasma concentration Individual): 232 ng/mL
concentration at 0.5 hr ([1]; female, Balb/c, mouse, plasma, iv, 1 mg/kg, I-8 IV 1 mg/kg, 0.5 hr, read-out: Plasma concentration Mean): 279 ng/mL
concentration at 1 hr ([1]; female, Balb/c, mouse, plasma, iv, 1 mg/kg, I-8 IV 1 mg/kg, 1 hr, read-out: Plasma concentration Individual): 85.2 ng/mL
concentration at 1 hr ([1]; female, Balb/c, mouse, plasma, iv, 1 mg/kg, I-8 IV 1 mg/kg, 1 hr, read-out: Plasma concentration Mean): 82.9 ng/mL
concentration at 2 hr ([1]; female, Balb/c, mouse, plasma, iv, 1 mg/kg, I-8 IV 1 mg/kg, 2 hr, read-out: Plasma concentration Individual): 24.8 ng/mL
concentration at 2 hr ([1]; female, Balb/c, mouse, plasma, iv, 1 mg/kg, I-8 IV 1 mg/kg, 2 hr, read-out: Plasma concentration Mean): 22.3 ng/mL
concentration at 4 hr ([1]; female, Balb/c, mouse, plasma, iv, 1 mg/kg, I-8 IV 1 mg/kg, 4 hr, read-out: Plasma concentration Individual): 10 ng/mL
concentration at 4 hr ([1]; female, Balb/c, mouse, plasma, iv, 1 mg/kg, I-8 IV 1 mg/kg, 4 hr, read-out: Plasma concentration Mean): 8.62 ng/mL
concentration at 0.083 h ([1]; female, Balb/c, mouse, plasma, po, 50 mg/kg, I-8 PO 50 mg/kg, 0.083 hr, read-out: Plasma concentration Individual): 247 ng/mL
concentration at 0.083 h ([1]; female, Balb/c, mouse, plasma, po, 50 mg/kg, I-8 PO 50 mg/kg, 0.083 hr, read-out: Plasma concentration Mean): 333 ng/mL
concentration at 0.25 h ([1]; female, Balb/c, mouse, plasma, po, 50 mg/kg, I-8 PO 50 mg/kg, 0.25 hr, read-out: Plasma concentration Individual): 1220 ng/mL
concentration at 0.25 h ([1]; female, Balb/c, mouse, plasma, po, 50 mg/kg, I-8 PO 50 mg/kg, 0.25 hr, read-out: Plasma concentration Mean): 1500 ng/mL
concentration at 0.5 hr ([1]; female, Balb/c, mouse, plasma, po, 50 mg/kg, I-8 PO 50 mg/kg, 0.5 hr, read-out: Plasma concentration Mean): 3330 ng/mL
concentration at 1 h ([1]; female, Balb/c, mouse, plasma, po, 50 mg/kg, I-8 PO 50 mg/kg, 1 hr, read-out: Plasma concentration Individual): 1810 ng/mL
concentration at 1 h ([1]; female, Balb/c, mouse, plasma, po, 50 mg/kg, I-8 PO 50 mg/kg, 1 hr, read-out: Plasma concentration Mean): 2560 ng/mL
concentration at 2 h ([1]; female, Balb/c, mouse, plasma, po, 50 mg/kg, I-8 PO 50 mg/kg, 2 hr, read-out: Plasma concentration Individual): 1670 ng/mL
concentration at 2 h ([1]; female, Balb/c, mouse, plasma, po, 50 mg/kg, I-8 PO 50 mg/kg, 2 hr, read-out: Plasma concentration Mean): 1960 ng/mL
concentration at 4 h ([1]; female, Balb/c, mouse, plasma, po, 50 mg/kg, I-8 PO 50 mg/kg, 4 hr, read-out: Plasma concentration Individual): 530 ng/mL
concentration at 4 h ([1]; female, Balb/c, mouse, plasma, po, 50 mg/kg, I-8 PO 50 mg/kg, 4 hr, read-out: Plasma concentration Mean): 675 ng/mL
concentration at 8 h ([1]; female, Balb/c, mouse, plasma, po, 50 mg/kg, I-8 PO 50 mg/kg, 8 hr, read-out: Plasma concentration Individual): 155 ng/mL
concentration at 8 h ([1]; female, Balb/c, mouse, plasma, po, 50 mg/kg, I-8 PO 50 mg/kg, 8 hr, read-out: Plasma concentration Mean): 139 ng/mL
concentration at 24 h ([1]; female, Balb/c, mouse, plasma, po, 50 mg/kg, I-8 PO 50 mg/kg, 24 hr, read-out: Plasma concentration Mean): 7.75 ng/mL
AUC(0-inf) ([1]; mouse, plasma, I-8 IV 1 mg/kg): 717 ng·h/mL
AUC(0-t) ([1]; mouse, plasma, I-8 IV 1 mg/kg): 705 ng·h/mL
C0 ([1]; mouse, plasma, I-8 IV 1 mg/kg): 2850 ng/mL
MRT inf ([1]; mouse, plasma, I-8 IV 1 mg/kg): 28.3 min
MRT last ([1]; mouse, plasma, I-8 IV 1 mg/kg): 23.2 min
clearance ([1]; mouse, plasma, I-8 IV 1 mg/kg): 23.2 mL/min/kg
half-life ([1]; mouse, plasma, I-8 IV 1 mg/kg): 58.2 min
Vd ([1]; mouse, plasma, I-8 IV 1 mg/kg, read-out: Vss): 0.657 L/kg
AUC(0-inf) ([1]; mouse, plasma, I-8 PO 50 mg/kg): 9970 ng·h/mL
AUC(0-t) ([1]; mouse, plasma, I-8 PO 50 mg/kg): 9930 ng·h/mL
Cmax ([1]; mouse, plasma, I-8 PO 50 mg/kg): 3330 ng/mL
MRT inf ([1]; mouse, plasma, I-8 PO 50 mg/kg): 182 min
MRT last ([1]; mouse, plasma, I-8 PO 50 mg/kg): 176 min
Tmax ([1]; mouse, plasma, I-8 PO 50 mg/kg): 30 min
half-life ([1]; mouse, plasma, I-8 PO 50 mg/kg): 197 min
IC50 (Human eIF4E (aa 28-217)): 500 to 1000 nM
SMILES: CC(C)Cc1sc(Nc2ncc(-c3cccs3)cc2C(=O)O)nc1C1=CCCC1 [Compound I-8]
